According to patent US11352340B2, “Pyridine and pyridimine compounds as PI3K-gamma inhibitors” (Incyte Corporation, priority 2016, dated 2022):
Where a name gives a salt, the structure may show the parent alone.

Legend:
[1] = biological target: PI3Kδ (p110δ/p85α) Recombinant Human Protein (Homo sapiens (Human), UniProt O00329); test: PI3Kδ Scintillation Proximity Assay; type: biochemical; conditions: read-out: PI3K-delta SPA IC50
Excerpt: Example C. PI3Kδ Scintillation Proximity Assay
(§1) [γ-^33P]ATP (10 mCi/mL) and Wheat Germ Agglutinin (WGA) YSi SPA Scintillation Beads was purchased from Perkin-Elmer (Waltham, Mass.). Lipid kinase substrate, D-myo-Phosphatidylinositol 4,5-bisphosphate (PtdIns(4,5)P2)D (+)-sn-1,2-di-O-octanoylglyceryl, 3-O-phospho linked (PIP2), CAS 204858-53-7, was purchased from Echelon Biosciences (Salt Lake City, Utah). PI3Kδ (p110δ/p85α) Recombinant Human Protein was purchased from Eurofins (St Charles, Mo.). ATP, MgCl2, DTT, EDTA, MOPS and CHAPS were purchased from Sigma-Aldrich (St. Louis, Mo.).
(§2) The kinase reaction was conducted in polystyrene 384-well Greiner Bio-one white plate from Thermo Fisher Scientific in a final volume of 25 μL. Inhibitors were first diluted serially in DMSO and added to the plate wells before the addition of other reaction components. The final concentration of DMSO in the assay was 2%. The PI3Kδ assay was carried out at room temperature in 20 mM MOPS, pH 6.7, 10 mM MgCl2, 5 mM DTT and CHAPS 0.03%. Reactions were initiated by the addition of ATP, the final reaction mixture consisted of 20 μM PIP2, 2 μM ATP, 0.5 μCi [γ-^33P] ATP, 3.4 nM PI3Kδ. Reactions were incubated for 120 min and terminated by the addition of 40 μL SPA beads suspended in quench buffer: 163 mM potassium phosphate pH 7.8, 20% glycerol, 25 mM EDTA. The final concentration of SPA beads is 1.0 mg/mL. After the plate sealing, plates were shaken overnight at room temperature and centrifuged at 1500 rpm for 10 min, the radioactivity of the product was determined by scintillation counting on Topcount (Perkin-Elmer). IC50 determination was performed by fitting the curve of percent of the solvent control activity versus the log of the inhibitor concentration using the GraphPad Prism 6.0 software.

[2] = biological target: PI3Kγ (p110γ) Recombinant Human Protein (Homo sapiens (Human), UniProt P48736); test: PI3K-γ Scintillation Proximity Assay; type: biochemical; conditions: read-out: PI3K-gamma SPA IC50
Excerpt: Example B. PI3K-γ Scintillation Proximity Assay
as §1, with “PI3Kγ (p110γ)” for “PI3Kδ (p110δ/p85α)”, “Life technology (Grand Island, N.Y.).” for “Eurofins (St Charles, Mo.).”
as §2, with “PI3Kγ” for “PI3Kδ”, “13” for “3.4”, “PI3Kγ.” for “PI3Kδ.”

PI3Kδ (p110δ/p85α) Recombinant Human Protein, sequence (O00329 whole entry): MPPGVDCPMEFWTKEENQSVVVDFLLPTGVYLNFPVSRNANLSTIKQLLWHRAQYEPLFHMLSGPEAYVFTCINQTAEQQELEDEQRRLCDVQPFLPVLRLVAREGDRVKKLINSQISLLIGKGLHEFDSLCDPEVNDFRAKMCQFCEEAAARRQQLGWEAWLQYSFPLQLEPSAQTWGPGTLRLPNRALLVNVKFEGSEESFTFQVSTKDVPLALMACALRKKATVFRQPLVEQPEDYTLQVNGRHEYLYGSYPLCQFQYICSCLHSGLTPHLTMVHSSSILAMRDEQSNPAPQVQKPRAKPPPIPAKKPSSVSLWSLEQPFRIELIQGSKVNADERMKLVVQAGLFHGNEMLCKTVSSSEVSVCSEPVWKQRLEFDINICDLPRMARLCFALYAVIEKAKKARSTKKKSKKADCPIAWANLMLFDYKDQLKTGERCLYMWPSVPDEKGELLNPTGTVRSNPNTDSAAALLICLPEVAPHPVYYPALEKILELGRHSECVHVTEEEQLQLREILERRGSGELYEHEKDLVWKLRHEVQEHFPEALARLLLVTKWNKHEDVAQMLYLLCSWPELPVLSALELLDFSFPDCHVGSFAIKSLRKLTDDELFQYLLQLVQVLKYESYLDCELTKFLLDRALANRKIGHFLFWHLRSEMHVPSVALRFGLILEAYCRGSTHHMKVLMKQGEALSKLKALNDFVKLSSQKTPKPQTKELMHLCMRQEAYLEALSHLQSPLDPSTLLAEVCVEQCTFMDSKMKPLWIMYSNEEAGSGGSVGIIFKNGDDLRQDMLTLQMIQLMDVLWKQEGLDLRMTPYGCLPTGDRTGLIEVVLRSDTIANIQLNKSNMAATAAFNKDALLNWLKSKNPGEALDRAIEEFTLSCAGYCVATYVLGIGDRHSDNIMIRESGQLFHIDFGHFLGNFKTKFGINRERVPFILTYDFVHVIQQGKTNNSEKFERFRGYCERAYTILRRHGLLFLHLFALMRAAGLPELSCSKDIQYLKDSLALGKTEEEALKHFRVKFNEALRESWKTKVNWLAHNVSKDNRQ
PI3Kδ (p110δ/p85α) Recombinant Human Protein, sequence (P27986 whole entry partner): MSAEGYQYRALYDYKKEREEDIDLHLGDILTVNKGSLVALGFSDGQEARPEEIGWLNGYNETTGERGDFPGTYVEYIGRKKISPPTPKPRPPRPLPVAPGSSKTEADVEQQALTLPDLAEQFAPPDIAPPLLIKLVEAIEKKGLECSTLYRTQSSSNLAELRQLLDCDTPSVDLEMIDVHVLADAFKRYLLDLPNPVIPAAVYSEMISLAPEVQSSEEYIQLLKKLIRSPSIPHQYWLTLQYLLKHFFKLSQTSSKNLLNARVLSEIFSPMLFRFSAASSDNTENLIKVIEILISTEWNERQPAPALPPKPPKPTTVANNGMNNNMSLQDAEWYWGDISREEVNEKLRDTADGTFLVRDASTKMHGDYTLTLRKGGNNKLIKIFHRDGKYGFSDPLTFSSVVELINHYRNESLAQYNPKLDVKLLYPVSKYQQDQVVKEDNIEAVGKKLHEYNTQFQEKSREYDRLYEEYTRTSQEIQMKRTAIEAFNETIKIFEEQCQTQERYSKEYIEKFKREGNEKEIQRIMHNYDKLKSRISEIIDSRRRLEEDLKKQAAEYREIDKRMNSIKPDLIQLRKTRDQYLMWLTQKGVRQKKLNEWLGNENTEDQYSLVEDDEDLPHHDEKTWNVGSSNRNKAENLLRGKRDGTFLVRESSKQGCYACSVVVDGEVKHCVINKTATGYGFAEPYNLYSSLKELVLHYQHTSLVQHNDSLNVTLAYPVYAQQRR
PI3Kγ (p110γ) Recombinant Human Protein, sequence (P48736 whole entry): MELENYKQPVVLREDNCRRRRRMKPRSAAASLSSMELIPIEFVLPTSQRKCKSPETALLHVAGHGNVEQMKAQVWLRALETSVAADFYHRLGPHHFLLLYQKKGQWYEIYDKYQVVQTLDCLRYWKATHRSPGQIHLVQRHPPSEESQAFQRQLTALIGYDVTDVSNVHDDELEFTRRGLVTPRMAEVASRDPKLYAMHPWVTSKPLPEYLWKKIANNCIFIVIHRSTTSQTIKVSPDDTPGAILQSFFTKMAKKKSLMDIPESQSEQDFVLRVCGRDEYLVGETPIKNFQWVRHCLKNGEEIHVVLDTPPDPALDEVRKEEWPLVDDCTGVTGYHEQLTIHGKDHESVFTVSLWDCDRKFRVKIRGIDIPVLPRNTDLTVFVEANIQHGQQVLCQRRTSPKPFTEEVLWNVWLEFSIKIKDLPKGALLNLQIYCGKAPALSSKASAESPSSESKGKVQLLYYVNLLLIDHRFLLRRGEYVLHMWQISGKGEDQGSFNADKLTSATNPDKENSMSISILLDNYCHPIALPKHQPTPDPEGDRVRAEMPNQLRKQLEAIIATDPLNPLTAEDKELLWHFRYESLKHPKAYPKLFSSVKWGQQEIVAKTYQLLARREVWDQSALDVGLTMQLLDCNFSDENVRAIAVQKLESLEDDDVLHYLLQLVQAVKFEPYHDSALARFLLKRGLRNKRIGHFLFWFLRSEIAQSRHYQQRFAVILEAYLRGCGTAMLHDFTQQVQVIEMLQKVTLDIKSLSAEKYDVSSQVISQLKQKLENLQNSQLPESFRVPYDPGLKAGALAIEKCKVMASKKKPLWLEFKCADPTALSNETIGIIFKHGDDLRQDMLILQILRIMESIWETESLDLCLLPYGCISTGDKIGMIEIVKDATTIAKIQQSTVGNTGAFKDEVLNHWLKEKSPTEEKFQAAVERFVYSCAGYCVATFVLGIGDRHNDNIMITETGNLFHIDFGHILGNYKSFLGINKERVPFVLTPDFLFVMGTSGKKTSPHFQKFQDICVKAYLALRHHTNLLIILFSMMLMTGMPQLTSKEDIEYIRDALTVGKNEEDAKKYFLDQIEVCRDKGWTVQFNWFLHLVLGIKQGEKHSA

Compound	IC50 [1] [nM]	IC50 [2] [nM]
O=S(=O)(c1ccccc1)N1CCC(c2c[nH]c(-c3cc(-c4cnn(Cc5ccc(Cl)cc5)c4)ccn3)n2)C1 (centres unmarked) [Example 302, 4-[1-(4-Chlorobenzyl)-1H-pyrazol-4-yl]-2-{4-[1-(phenylsulfonyl)pyrrolichn-3-yl]-1H-imidazol-2-yl}pyridine trifluoroacetate salt]	≤ 500	≤ 500
CCc1cnc(-c2cc(-c3cncc(N4CCOCC4)c3)ccn2)[nH]1 [Example 100, 4-(2′-(5-Ethyl-1H-imidazol-2-yl)-3,4′-bipyridin-5-yl)morpholine trifluoroacetate salt]	≤ 500	≤ 500
COc1cncc(-c2cc(-c3nc4ccccc4[nH]3)ncn2)c1 [Example 95, trifluoroacetate salt]	> 500	> 500
4-(1-Methyl-3-(trifluoromethyl)-1H-pyrazol-5-yl)-2-(5-phenyl-1H-imidazol-2-yl)pyridine trifluoroacetate salt [Example 13]	> 500	> 500
Cc1nc(-c2cc(-c3cncc(NC(=O)OC(C)(C)C)c3)ccn2)[nH]c1C [Example 128, tert-Butyl [2′-(4,5-dimethyl-1H-imidazol-2-yl)-3,4′-bipyridin-5-yl]carbamate]	≤ 500	≤ 500
O=S(=O)(c1ccccc1)N1CCC(c2c[nH]c(-c3cc(-c4cnn(Cc5ccc(Cl)cc5)c4)ccn3)n2)C1 (centres unmarked) [Example 305, 4-[1-(4-Chlorobenzyl)-1H-pyrazol-4-yl]-2-{4-[1-(phenylsulfonyl)pyrrolidin-3-yl]-1H-imidazol-2-yl}pyridine trifluoroacetate salt]	≤ 500	≤ 500

Other lines, results leading:

IC50 [1] [nM]	IC50 [2] [nM]	Compound
≤ 500	> 500	CC(=O)N1CC=C(c2cncc(-c3ccnc(-c4nc(C)c(C)[nH]4)c3)c2)C1 [Example 238, 1-(3-(2′-(4,5-Dimethyl-1H-imidazol-2-yl)-3,4′-bipyridin-5-yl)-2,5-dihydro-1H-pyrrol-1-yl)ethanone]
≤ 50	≤ 100	COCCN(C)C(=O)c1cncc(-c2ccnc(-c3nc(C)c(C)[nH]3)c2)c1 [Example 204, 2′-(4,5-Dimethyl-1H-imidazol-2-yl)-N-(2-methoxyethyl)-N-methyl-3,4′-bipyridine-5-carboxamide trifluoroacetate salt]
> 500	> 500	Cc1nc(-c2cc(C3=CCCN(Cc4ccc(Cl)cc4)C3)ccn2)[nH]c1C [Example 224, 4-(1-(4-Chlorobenzyl)-1,2,5,6-tetrahydropyridin-3-yl)-2-(4,5-dimethyl-1H-imidazol-2-yl)pyridine trifluoroacetate salt]
≤ 500	≤ 500	Cc1nc(-c2cc(-c3cncc(C(=O)N4CCC(c5ccncc5)C4)c3)ccn2)[nH]c1C (racemic) [Example 182, 2′-(4,5-Dimethyl-1H-imidazol-2-yl)-5-[(3-pyridin-4-ylpyrrolidin-1-yl)carbonyl]-3,4′-bipyridine]
≤ 100	> 500	Cc1[nH]c(-c2cc(-c3cncc(N4CCOCC4)c3)ccn2)nc1CNC1CCOCC1 [Example 283, N-{[5-Methyl-2-(5-morpholin-4-yl-3,4′-bipyridin-2′-yl)-1H-imidazol-4-yl]methyl}tetrahydro-2H-pyran-4-amine]
> 500	> 500	CC(=O)N1CC=C(c2ccnc(-c3nc(C)c(C)[nH]3)c2)C1 [Example 226, 1-(3-(2-(4,5-Dimethyl-1H-imidazol-2-yl)pyridin-4-yl)-2,5-dihydro-1H-pyrrol-1-yl)ethanone trifluoroacetate salt]
≤ 50	> 500	COCCCNCc1nc(-c2cc(-c3cncc(N4CCOCC4)c3)ccn2)[nH]c1C [Example 291, 3-Methoxy-N-{[5-methyl-2-(5-morpholin-4-yl-3,4′-bipyridin-2′-yl)-1H-imidazol-4-yl]methyl}propan-1-amine]
